# Experimental data: US10017762B2, “Compositions and methods for treating or preventing lupus” (The United States of America, as represented by the …, priority 2010, dated 2018)
# Tests used:
# blood basophils = assay: Blood basophil numbers and HLA-DR expression in SLE patients under immunosuppressive treatments; assay type: in vivo, human; settings: low dose (≤7.5 mg/day) vs medium to high dose (>7.5 mg/day) prednisone
# Procedure: Blood was harvested in EDTA-coated tubes. 4 ml of blood was used to harvest plasma sample. For this purpose, blood was centrifugated at 600×g for 20 minutes at 4° C. Plasma phase was then harvested, and samples kept at […] until further analysis. For basophils analysis, 10 ml of whole blood were added to 20 ml of ACK lysing buffer and incubated 5 min at room temperature and 5 more minutes on ice. 30 ml of PBS was added, and cells were centrifuged (500×g, 5 min). This step was repeated three times total until no more red blood cells were visible. Cells were then resuspended into 10 ml (original volume) of FACS buffer (PBS/1% BSA/0.05% NaN3). Number of leukocytes per ml and viability were assessed with a ViCell cell counter (Beckman and Coulter). Viability was always over 90%. Cells were then processed for extracellular staining with the indicated surface markers. For basophil absolute counts, basophils were identified as FcϵRIα^+CD203c^+CD123^+CD11b^+ cells. For HLA-DR expression analysis, basophils were identified as FcϵRI^+CD203c^+CD11b^+. For CD62L expression analysis, basophils were identified as FcϵRIα^+CD203c^+CD123^+.
# FcϵRI = settings: Lin, H. et al. (2004); cited from earlier work
compound,measurement,setting,value
C[C@]12C=CC(=O)C=C1CC[C@@H]1[C@@H]2C(=O)C[C@@]2(C)[C@H]1CC[C@]2(O)C(=O)CO [prednisone],HLA-DR expressing basophils,blood basophils,no difference
same,number of peripheral basophils,blood basophils,no difference
omalizumab: recombinant DNA-derived humanized IgG monoclonal antibody that selectively binds to human immunoglobulin E (IgE),FcϵRI expression on basophils,FcϵRI,decreases FcϵRI expression on basophils
